Assay results reported in PubChem BioAssay AID732 (Emory University Molecular Libraries Screening Center, 2007).
Values joined by “and” are separate entries in the source; they are usually repeats but may differ in a detail not shown here. Equal values may be shown once. Active and inactive are the calls of the source. No rule for the calls is given here.

What follows are compounds tested on in vivo angiogenesis, blood vessel count (assay: reduction of blood vessel formation in vivo – HTS, in vivo study (AID 732;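 also: zebrafish embryos dosed at one day post fertilization; 0% = reference inhibitor and 100% = plate mean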)). Details: active compounds read low;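 tested at 30 µM in the well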.

Row | Compound | vessel count % control
1 | CC(C)NCC(O)c1ccc(O)c(O)c1 (configuration not stated) | 97.1% (inactive)
2 | C=C(C)[C@H]1Cc2c(ccc3c2O[C@@H]2COc4cc(OC)c(OC)cc4[C@@H]2C3=O)O1 | 0% (inactive)
3 | O=C(O)/C=C/C(O)c1ccc(Cl)cc1 (configuration not stated) | 115% (inactive)
4 | Oc1ccc(Cn2cc[nH]c2=S)cc1 | 92.9% (inactive)
5 | COc1cc2c(cc1C(F)(F)F)N(C(=O)Nc1cc(F)cc(-c3cccnc3)c1)CC2 | 95.3% (inactive)
6 | Cc1ccc(OCC(O)C(C)NC(C)C)c2c1CCC2 (configuration not stated) | 103% (inactive)
7 | NCCc1ccc(S(=O)(=O)F)cc1 | 87.5% (inactive)
8 | CC(=O)N[C@H](C(=O)O)C(C)(C)SN=O | 94.3% (inactive)
9 | Oc1[nH]c2c(Cl)cc(Cl)cc2c1C1=Nc2ccc(Br)cc2/C1=N\OCCN1CCCC1 | 93.4% (inactive)
10 | CC12CC3CC(C)(C1)CC(N)(C3)C2 | 128% (inactive)
11 | Nc1nc(Cl)nc2c1ncn2[C@@H]1O[C@H](COP(=O)(O)OP(=O)(O)OP(=O)(O)O)[C@H](O)C1O (some centres not stated) | 107% (inactive)
12 | OCCN(CCO)c1nc(N2CCCCC2)c2nc(N(CCO)CCO)nc(N3CCCCC3)c2n1 | 109% (inactive)
13 | CSc1ccc2c(c1)N(CCC1CCCCN1C)c1ccccc1S2 (configuration not stated) | 102% (inactive)
14 | O=C1CCCN1CC#CCN1CCCC1 | 99.6% (inactive)
15 | O=c1[nH]c(=O)n([C@H]2C[C@H](O)[C@@H](CO)O2)cc1/C=C/Br | 93% (inactive)
16 | C[N+]1(C)CCC(OC(=O)C(c2ccccc2)c2ccccc2)CC1 | 91.5% (inactive)
17 | NCC(O)c1cc(O)c(O)cc1F (configuration not stated) | 87.4% (inactive)
18 | NC(=O)c1ccccc1 | 92% (inactive)
19 | CN1CCc2cccc3c2C1Cc1ccc(O)c(O)c1-3 (configuration not stated) | 0% (inactive)
20 | O=C(c1ccc2c(c1)OCCO2)N1CCCCC1 | 106% (inactive)
21 | O[Si](CCCN1CCCCC1)(c1ccc(F)cc1)C1CCCCC1 (configuration not stated) | 107% (inactive)
22 | Cc1scc2c1N(C(=O)CN1CCN(C)CC1)c1ccccc1NC2=O | 93.3% (inactive)
23 | N=c1ccn2c(n1)OC1[C@@H](O)[C@@H](CO)O[C@H]12 (some centres not stated) | 78.4% (inactive)
24 | C=CCN1CCC23c4c5ccc(O)c4O[C@H]2C(=O)CC[C@@]3(O)C1C5 (some centres not stated) | 88.4% (inactive)
25 | O=[N+]([O-])c1ccc(CSc2ncnc3c2ncn3[C@@H]2O[C@H](CO)[C@H](O)C2O)cc1 (some centres not stated) | 80.2% (inactive)
26 | NCCSSCCN | 118% (inactive)

Row | Compound | vessel count % control
27 | COc1cc(OC)c(/C=C2/C(=O)Nc3ccccc32)c(OC)c1 | 44.4% (inactive)
28 | NC(=O)c1ncn([C@@H]2O[C@H](CO)[C@@H](O)[C@H]2O)c1O | 94.8% (inactive)
29 | CC1(C(=O)O)C2CCC(O2)C1(C)C(=O)O (configuration not stated) | 0% (inactive)
30 | NCCC1CCCC(CCN)N1 (configuration not stated) | 115% (inactive)
31 | OC[C@H]1O[C@@H](n2cnc3c(NCCc4ccccc4)ncnc32)C(O)[C@H]1O (some centres not stated) | 79.4% (inactive)
32 | S=C(Nc1ccccc1)Nc1nccs1 | 61.2% (inactive)
33 | Nc1ncnc2c1ncn2[C@@H]1O[C@H](COP(=O)(O)CP(=O)(O)OP(=O)(O)O)[C@H](O)C1O (some centres not stated) | 95.1% (inactive)
34 | Nc1cc(Cl)c(NC2=NCCN2)c(Cl)c1 | 114% (inactive)
35 | COc1cccc(OC)c1OCCNCC1COc2ccccc2O1 (configuration not stated) | 90.6% (inactive)
36 | CCN(CC)C(=O)N[C@@H]1C=C2c3cccc4[nH]cc(c34)C[C@H]2N(C)C1 | 75.3% (inactive)
37 | Oc1ccc2c3c1O[C@H]1[C@@H](O)CC[C@@]4(O)C(C2)N(CC2CCC2)CCC314 (some centres not stated) | 81.2% (inactive)
38 | COc1cc(C(O)CO)ccc1O (configuration not stated) | 96.8% (inactive)
39 | N[C@@H](Cc1c[nH]c2ccccc12)C(=O)O | 88.5% (inactive)
40 | CN(C)CCCN1c2ccccc2CCc2ccccc21 | 104% (inactive)
41 | CN=C(NC#N)NCCSCc1nc[nH]c1C | 112% (inactive)
42 | C[C@H](N)CN1CCc2ccc(Br)cc21 | 126% (inactive)
43 | Nc1nnc(-c2cccc(Cl)c2Cl)c(N)n1 | 62.2% (inactive)
44 | Nc1c2c(nc3ccccc13)CCCC2O (configuration not stated) | 86.4% (inactive)
45 | CC[N+](CC)(CC)CC(=O)Nc1c(C)cccc1C | 85.1% (inactive)
46 | O=C(O)c1cc[c]([Hg][Cl])cc1 | 105% (inactive)
47 | Cc1ccccc1N1CCN(S(=O)(=O)C[C@]23CCC(CC2NC(=O)[C@@H](N)CCS(C)(=O)=O)C3(C)C)CC1 (some centres not stated) | 107% (inactive)
48 | Cc1ccc(Cl)c(Nc2ccccc2C(=O)O)c1Cl | 90.3% (inactive)
49 | O=C1N(c2ccccc2)c2ccccc2C1(Cc1ccncc1)Cc1ccncc1 | 96.6% (inactive)
50 | C=C[C@H]1CN2CCC1C[C@H]2[C@H](O)c1ccnc2ccc(OC)cc12 (some centres not stated) | 98% (inactive)
51 | NC(CCP(=O)(O)O)C(=O)O (configuration not stated) | 88.9% (inactive)
52 | CC(/C=C/c1cccc(Oc2ccc(F)cc2)c1)N(O)C(N)=O (configuration not stated) | 100% (inactive)

Row | Compound | vessel count % control
53 | COc1ccc(Cl)cc1C(=O)NCCc1ccc(S(=O)(=O)NC(=O)NC2CCCCC2)cc1 | 94.8% (inactive)
54 | O=c1[nH]c2cc([N+](=O)[O-])c([N+](=O)[O-])cc2[nH]c1=O | 104% (inactive)
55 | CCCN(CCC)[C@@H]1CCc2cccc(O)c2C1 | 94.1% (inactive)
56 | CCN1CCC[C@H]1CNC(=O)c1cc(S(N)(=O)=O)ccc1OC | 89.7% (inactive)
57 | Cc1cc(C(C)(C)C)cc(C)c1CC1=NCCN1 | 101% (inactive)
58 | C[N+](C)(C)CCOC(=O)CCC(=O)OCC[N+](C)(C)C | 94.4% (inactive)
59 | O=C(O)CCCc1ccc(N(CCCl)CCCl)cc1 | 118% (inactive)
60 | CP(=O)(O)CCCN | 76.1% (inactive)
61 | CC(=O)NNC(=O)N1Cc2ccccc2Oc2ccc(Cl)cc21 | 0% (inactive)
62 | CC(N)Cc1c[nH]c2ccc(OCc3cccs3)cc12 (configuration not stated) | 107% (inactive)
63 | NC(Cc1cc(O)c(O)cc1O)C(=O)O (configuration not stated) | 88.2% (inactive)
64 | [Li+] | 0% (inactive)
65 | CN(C)CCC(c1ccc(Br)cc1)c1ccccn1 (configuration not stated) | 92.3% (inactive)
66 | CCNC(=O)[C@H]1O[C@@H](n2cnc3c(N)nc(NCCc4ccc(CCC(=O)O)cc4)nc32)C(O)[C@H]1O (some centres not stated) | 93.7% (inactive)
67 | CC12CCC3C(CCC4=C(O)C(=O)CCC43C)C1CCC2=O (configuration not stated) | 109% (inactive)
68 | N[C@H](C(=O)O)c1cc(O)cc(O)c1 | 108% (inactive)
69 | Clc1cccc(Cl)c1NC1=NCCN1 | 121% (inactive)
70 | O=C1NC(O)=NC1(c1ccccc1)c1ccccc1 | 106% (inactive)
71 | CC(=O)SC1CC2=CC(=O)CC[C@]2(C)C2CC[C@@]3(C)C(CC[C@@]34CCC(=O)O4)C12 (some centres not stated) | 85.3% (inactive)
72 | CCCCCC[C@@H]([C@@H](C)O)n1cnc2c(N)ncnc21 | 85.8% (inactive)
73 | c1ccc2c(N3CCNCC3)cccc2c1 | 97.1% (inactive)
74 | CC12NC(Cc3ccccc31)c1ccccc12 (configuration not stated) | 76.2% (inactive)
75 | NNC(=O)c1ccc(O)cc1 | 97.5% (inactive)
76 | O=C(O)c1cc2cc(F)ccc2[nH]1 | 104% (inactive)
77 | CCCN1CCO[C@@H]2c3cc(O)ccc3OC[C@H]21 | 69.9% (inactive) and 97.2% (inactive)
78 | c1ccc2c(c1)[I+]c1ccccc1-2 | 112% (inactive)

Row | Compound | vessel count % control
79 | CO[C@@]1(NC(=O)CSCC#N)C(=O)N2C(C(=O)O)=C(CSc3nnnn3C)CS[C@@H]21 | 122% (inactive)
80 | CN(C)c1ccc(/C=C2\C(=O)Nc3ccccc32)cc1 | 36.7%
81 | Cc1c(CC(C)(C)C(=O)O)n(Cc2ccc(Cl)cc2)c2ccc(F)cc12 | 127% (inactive)
82 | CN1C[C@@H](CS(=O)(=O)N(C)C)C[C@@H]2c3cccc4c3c(cn4C)C[C@H]21 | 103% (inactive)
83 | O=C1CCC(c2ccc(-n3ccnc3)cc2)=NN1 | 86% (inactive)
84 | Cc1ccc(C(=O)O[C@H](C(=O)O)[C@H](OC(=O)c2ccc(C)cc2)C(=O)O)cc1 (tested in a mixture with another compound) | 109% (inactive)
85 | NC[C@H](O)c1ccc(O)c(O)c1 | 86.6% (inactive)
86 | O=c1cc(O)cc(/C=C/c2ccc(O)c(O)c2)o1 | 122% (inactive)
87 | CC(=O)OCC1=C(C(=O)O)N2C(=O)[C@@H](NC(=O)CSc3ccncc3)[C@H]2SC1 | 97.3% (inactive)
88 | Fc1ccc(C(OCCCc2cnc[nH]2)c2ccc(F)cc2)cc1 | 89.2% (inactive)
89 | COc1cc(CCN)ccc1O | 124% (inactive)
90 | O=C(O)C1=CC(=C(c2ccc(O)c(C(=O)O)c2)c2ccc(O)c(C(=O)O)c2)C=CC1=O | 109% (inactive)
91 | CN1CCC[C@H]1c1cccnc1 | 120% (inactive)
92 | COc1ccccc1CNCCCCCCNCCCCCCCCNCCCCCCNCc1ccccc1OC | 113% (inactive)
93 | O=C(O)CCCCCC[C@H]1C(=O)NC(=O)N1CC[C@@H](O)C1CCCCC1 | 93.1% (inactive)
94 | OCc1ccc(-c2nn(Cc3ccccc3)c3ccccc23)o1 | 78.2% (inactive)
95 | NC1CCc2cc(O)c(O)cc2C1 (configuration not stated) | 94.8% (inactive)
96 | NC1CCN(c2cccc(Cl)n2)CC1 | 91.5% (inactive)
97 | CN1C2CCC1CC(OC(c1ccccc1)c1ccccc1N)C2 (configuration not stated) | 91.2% (inactive)
98 | CCN(CCCl)Cc1ccccc1Br | 99.8% (inactive)
99 | CCCn1c(=O)c2[nH]c(-c3ccc(OCC(=O)NCCN)cc3)nc2n(CCC)c1=O | 99.8% (inactive)
100 | COc1ccccc1NC(=O)Nc1nc(-c2cccnc2)nc2ccccc12 | 85.6% (inactive)
101 | COC(=O)[C@H]1[C@H]2C[C@H]3c4[nH]c5ccccc5c4CCN3C[C@H]2CC[C@@H]1O | 110% (inactive)
102 | NNC(N)=O | 126% (inactive)
